In the experiment the test system is influenza virus [インフルエンザウイルス]. Put plainly: microbe, parasite or virus in culture. It counts as cell-based. The conditions noted are these: unidentified influenza virus, 72 h, read-out: 50% influenza-infected cell death inhibition concentration (EC50).

Turning to `O=C1c2c(O)c(=O)cnn2N(C2c3ccccc3SCc3c2ccc(F)c3F)C2COCCN12` (single isomer, unassigned) [化合物I−1], the EC50 amounted to 0.0182 µM.
Take `CCN1CN(C2c3ccccc3CCc3ccccc32)n2ncc(=O)c(O)c2C1=O` [化合物I−2]: the EC50 came to 0.207 µM.

Source of the values: patent JP2019059697A, “置換された多環性ピリダジン誘導体およびそのプロドラッグ” (priority 2017, dated 2019).
